Here are results for one molecule from ChEMBL document CHEMBL3526030, “Transport of the coumarin metabolite 7-hydroxycoumarin glucuronide is mediated via multidrug resistance-associated proteins 3 and 4” (Drug Metab Dispos, 2012).

Holding throughout (type): ADME
In series [1] the target is ATP-binding cassette sub-family C member 2 (Homo sapiens, UniProt Q92887). In words: Activity at MRP2 (unknown origin) expressed in baculovirus-infected HEK293 cells assessed as drug transport at 400 uM after 10 mins by reversed-phase HPLC analysis in presence of AMP. The settings on record: hek293, 10 min, BLD = below limit of detection.
ATP-binding cassette sub-family C member 2, sequence (Q92887 whole entry): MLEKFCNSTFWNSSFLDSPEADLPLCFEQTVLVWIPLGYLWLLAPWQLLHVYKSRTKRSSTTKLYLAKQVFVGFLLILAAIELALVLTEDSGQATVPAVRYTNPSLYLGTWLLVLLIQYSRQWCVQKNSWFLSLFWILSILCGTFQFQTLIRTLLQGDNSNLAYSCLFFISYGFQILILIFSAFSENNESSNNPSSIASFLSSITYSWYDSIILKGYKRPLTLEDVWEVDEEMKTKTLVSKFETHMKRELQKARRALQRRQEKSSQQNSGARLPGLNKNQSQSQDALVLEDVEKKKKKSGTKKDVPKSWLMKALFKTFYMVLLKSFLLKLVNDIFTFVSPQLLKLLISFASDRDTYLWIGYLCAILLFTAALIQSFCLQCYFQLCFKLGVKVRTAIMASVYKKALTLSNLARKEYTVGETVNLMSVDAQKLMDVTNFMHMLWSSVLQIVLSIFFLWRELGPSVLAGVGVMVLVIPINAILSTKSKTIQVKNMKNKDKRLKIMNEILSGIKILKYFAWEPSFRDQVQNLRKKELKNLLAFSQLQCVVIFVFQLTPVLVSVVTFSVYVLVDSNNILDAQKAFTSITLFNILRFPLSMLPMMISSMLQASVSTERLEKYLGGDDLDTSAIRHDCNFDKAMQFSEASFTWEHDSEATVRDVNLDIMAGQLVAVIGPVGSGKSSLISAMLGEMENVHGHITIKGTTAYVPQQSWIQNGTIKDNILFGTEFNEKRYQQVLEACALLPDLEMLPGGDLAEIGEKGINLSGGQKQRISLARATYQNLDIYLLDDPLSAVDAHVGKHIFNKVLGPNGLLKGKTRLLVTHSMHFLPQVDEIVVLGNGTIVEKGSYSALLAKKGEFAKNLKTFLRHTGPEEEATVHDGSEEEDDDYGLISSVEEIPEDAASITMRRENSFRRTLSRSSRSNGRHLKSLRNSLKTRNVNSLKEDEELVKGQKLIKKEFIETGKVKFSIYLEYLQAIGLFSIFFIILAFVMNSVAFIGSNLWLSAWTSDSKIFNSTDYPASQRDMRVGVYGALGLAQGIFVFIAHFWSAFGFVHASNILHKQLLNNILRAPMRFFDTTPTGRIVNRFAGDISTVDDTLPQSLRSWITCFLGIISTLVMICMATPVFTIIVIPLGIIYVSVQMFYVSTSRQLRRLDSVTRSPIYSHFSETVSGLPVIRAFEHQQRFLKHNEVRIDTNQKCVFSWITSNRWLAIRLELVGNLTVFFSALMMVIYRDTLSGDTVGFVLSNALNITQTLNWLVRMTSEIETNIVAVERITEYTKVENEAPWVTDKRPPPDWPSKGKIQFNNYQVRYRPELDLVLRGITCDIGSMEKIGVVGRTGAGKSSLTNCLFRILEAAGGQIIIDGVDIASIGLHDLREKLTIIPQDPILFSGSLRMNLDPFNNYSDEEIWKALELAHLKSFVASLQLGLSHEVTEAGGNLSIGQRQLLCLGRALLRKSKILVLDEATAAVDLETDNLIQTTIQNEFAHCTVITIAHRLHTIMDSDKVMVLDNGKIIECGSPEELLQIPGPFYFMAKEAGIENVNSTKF
The target in series [2] is T1, Broad substrate specificity ATP-binding cassette transporter ABCG2 (Homo sapiens, UniProt Q9UNQ0).
T1 sequence (Q9UNQ0 whole entry): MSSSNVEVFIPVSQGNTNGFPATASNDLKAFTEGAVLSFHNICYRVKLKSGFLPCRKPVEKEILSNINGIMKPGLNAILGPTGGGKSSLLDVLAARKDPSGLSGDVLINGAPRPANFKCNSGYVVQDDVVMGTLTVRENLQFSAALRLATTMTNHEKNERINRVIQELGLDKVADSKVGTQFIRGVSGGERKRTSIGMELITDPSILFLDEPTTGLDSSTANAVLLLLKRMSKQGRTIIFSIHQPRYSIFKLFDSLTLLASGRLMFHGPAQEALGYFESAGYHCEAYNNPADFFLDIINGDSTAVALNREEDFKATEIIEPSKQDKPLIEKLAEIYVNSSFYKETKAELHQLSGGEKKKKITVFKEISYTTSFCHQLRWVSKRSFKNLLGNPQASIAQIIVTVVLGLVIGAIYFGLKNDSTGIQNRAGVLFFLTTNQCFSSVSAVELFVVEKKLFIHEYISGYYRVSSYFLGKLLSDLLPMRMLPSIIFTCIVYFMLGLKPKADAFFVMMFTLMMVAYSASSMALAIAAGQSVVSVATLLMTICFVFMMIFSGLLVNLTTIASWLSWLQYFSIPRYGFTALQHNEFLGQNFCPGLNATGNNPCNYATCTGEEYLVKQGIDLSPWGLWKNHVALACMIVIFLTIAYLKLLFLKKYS
Kind of series: Activity at BCRP (unknown origin) expressed in baculovirus-infected HEK293 cells assessed as drug transport at 400 uM after 10 mins by reversed-phase HPLC analysis in presence of AMP. Conditions: hek293, 10 min, BLD = below limit of detection; call rule not given here.

In series [3] the target is Multidrug resistance-associated protein 1 (Homo sapiens, UniProt P33527). In words: Activity at MRP1 (unknown origin) expressed in baculovirus-infected HEK293 cells assessed as drug transport at 400 uM after 10 mins by reversed-phase HPLC analysis in presence of AMP. Conditions: hek293, 10 min, BLD = below limit of detection.
Multidrug resistance-associated protein 1, sequence (P33527 whole entry): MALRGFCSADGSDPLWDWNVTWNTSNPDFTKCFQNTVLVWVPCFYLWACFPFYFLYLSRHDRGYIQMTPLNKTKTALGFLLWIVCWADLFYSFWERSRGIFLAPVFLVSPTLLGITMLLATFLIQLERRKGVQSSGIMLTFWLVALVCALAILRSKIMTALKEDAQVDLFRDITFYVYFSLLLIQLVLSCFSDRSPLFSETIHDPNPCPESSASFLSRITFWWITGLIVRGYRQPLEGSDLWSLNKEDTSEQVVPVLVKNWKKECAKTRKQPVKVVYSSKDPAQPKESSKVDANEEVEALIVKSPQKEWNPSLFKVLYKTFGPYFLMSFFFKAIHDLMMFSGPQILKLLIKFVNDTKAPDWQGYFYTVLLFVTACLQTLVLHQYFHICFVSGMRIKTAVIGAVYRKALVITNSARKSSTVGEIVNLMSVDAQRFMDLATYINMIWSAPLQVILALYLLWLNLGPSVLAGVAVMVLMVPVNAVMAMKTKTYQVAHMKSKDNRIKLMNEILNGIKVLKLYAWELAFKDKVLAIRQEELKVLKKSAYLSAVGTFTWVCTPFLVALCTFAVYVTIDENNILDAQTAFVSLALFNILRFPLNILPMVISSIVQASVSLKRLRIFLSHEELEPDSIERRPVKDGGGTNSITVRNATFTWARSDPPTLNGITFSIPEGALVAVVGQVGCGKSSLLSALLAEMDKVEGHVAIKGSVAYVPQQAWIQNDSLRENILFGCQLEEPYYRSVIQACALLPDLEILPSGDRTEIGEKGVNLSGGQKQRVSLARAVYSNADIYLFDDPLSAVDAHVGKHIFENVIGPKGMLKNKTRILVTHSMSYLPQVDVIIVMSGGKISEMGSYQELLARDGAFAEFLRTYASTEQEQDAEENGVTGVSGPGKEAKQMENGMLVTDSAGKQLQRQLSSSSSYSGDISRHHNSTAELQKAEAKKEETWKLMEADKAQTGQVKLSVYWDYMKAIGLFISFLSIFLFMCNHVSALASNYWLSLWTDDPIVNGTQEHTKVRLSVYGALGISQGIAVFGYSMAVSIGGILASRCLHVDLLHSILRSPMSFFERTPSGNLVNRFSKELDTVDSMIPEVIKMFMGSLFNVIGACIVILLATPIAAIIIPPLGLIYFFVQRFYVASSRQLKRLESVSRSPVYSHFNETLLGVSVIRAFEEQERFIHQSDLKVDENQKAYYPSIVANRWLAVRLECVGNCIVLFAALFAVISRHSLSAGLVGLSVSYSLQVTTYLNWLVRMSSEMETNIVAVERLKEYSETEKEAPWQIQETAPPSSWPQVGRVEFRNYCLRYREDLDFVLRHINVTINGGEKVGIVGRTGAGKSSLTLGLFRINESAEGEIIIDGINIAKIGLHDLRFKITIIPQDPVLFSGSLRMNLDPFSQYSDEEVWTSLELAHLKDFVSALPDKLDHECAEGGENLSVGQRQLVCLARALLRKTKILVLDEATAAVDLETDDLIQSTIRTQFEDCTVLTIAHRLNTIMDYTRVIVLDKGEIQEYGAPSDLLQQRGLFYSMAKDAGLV
In series [4] the target is ATP-binding cassette sub-family C member 3 (Homo sapiens, UniProt O15438). In words: Activity at MRP3 (unknown origin) expressed in baculovirus-infected HEK293 cells assessed as drug transport at 400 uM after 10 mins by reversed-phase HPLC analysis in presence of AMP. The settings on record: hek293, 10 min, BLD = below limit of detection.
ATP-binding cassette sub-family C member 3, sequence (O15438 whole entry): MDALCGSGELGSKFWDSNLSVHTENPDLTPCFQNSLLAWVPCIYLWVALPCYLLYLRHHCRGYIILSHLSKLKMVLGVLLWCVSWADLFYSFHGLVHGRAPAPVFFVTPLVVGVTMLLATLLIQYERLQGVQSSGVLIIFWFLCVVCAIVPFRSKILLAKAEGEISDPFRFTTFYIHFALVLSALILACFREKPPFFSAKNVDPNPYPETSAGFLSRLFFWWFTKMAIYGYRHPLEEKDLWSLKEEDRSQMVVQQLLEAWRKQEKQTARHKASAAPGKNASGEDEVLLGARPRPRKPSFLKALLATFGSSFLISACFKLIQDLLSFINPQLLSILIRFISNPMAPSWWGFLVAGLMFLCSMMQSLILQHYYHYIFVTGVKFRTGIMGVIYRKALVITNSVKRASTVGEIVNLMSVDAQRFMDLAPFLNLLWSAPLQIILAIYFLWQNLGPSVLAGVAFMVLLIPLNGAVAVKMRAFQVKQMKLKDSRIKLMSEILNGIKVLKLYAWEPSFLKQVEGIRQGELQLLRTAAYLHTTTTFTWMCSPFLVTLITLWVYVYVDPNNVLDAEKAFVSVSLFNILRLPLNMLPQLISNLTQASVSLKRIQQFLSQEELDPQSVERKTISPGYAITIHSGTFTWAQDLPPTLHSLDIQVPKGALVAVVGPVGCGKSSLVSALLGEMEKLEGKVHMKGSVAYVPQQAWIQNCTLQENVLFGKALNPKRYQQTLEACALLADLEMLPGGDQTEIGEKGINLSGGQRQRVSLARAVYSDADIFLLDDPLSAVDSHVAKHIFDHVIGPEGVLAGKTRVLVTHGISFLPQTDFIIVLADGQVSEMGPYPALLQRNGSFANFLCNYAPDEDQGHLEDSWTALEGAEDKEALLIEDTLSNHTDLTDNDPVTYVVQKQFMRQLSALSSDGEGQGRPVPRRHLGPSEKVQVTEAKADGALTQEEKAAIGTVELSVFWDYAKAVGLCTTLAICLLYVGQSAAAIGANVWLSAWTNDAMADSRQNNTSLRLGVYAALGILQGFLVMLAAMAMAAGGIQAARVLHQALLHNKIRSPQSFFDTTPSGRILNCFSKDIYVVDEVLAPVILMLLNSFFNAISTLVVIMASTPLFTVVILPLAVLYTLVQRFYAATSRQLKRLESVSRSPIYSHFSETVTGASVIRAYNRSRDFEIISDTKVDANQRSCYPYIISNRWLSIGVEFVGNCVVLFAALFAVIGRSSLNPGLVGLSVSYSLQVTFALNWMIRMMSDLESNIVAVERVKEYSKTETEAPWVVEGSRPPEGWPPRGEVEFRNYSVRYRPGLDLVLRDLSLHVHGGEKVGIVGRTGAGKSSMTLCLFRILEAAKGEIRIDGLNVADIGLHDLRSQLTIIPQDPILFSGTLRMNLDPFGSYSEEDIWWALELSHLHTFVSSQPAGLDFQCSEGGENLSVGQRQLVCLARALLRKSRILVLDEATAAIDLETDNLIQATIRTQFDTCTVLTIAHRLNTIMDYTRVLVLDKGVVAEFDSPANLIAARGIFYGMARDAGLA
A short description of series [5]: Activity at P-gp (unknown origin) expressed in baculovirus-infected HEK293 cells assessed as drug transport at 400 uM after 10 mins by reversed-phase HPLC analysis in presence of AMP. Conditions: human, hek293, 10 min, BLD = below limit of detection.
Series [6] addresses T2, ATP-binding cassette sub-family C member 4 (Homo sapiens, UniProt O15439).
T2 sequence (O15439 whole entry): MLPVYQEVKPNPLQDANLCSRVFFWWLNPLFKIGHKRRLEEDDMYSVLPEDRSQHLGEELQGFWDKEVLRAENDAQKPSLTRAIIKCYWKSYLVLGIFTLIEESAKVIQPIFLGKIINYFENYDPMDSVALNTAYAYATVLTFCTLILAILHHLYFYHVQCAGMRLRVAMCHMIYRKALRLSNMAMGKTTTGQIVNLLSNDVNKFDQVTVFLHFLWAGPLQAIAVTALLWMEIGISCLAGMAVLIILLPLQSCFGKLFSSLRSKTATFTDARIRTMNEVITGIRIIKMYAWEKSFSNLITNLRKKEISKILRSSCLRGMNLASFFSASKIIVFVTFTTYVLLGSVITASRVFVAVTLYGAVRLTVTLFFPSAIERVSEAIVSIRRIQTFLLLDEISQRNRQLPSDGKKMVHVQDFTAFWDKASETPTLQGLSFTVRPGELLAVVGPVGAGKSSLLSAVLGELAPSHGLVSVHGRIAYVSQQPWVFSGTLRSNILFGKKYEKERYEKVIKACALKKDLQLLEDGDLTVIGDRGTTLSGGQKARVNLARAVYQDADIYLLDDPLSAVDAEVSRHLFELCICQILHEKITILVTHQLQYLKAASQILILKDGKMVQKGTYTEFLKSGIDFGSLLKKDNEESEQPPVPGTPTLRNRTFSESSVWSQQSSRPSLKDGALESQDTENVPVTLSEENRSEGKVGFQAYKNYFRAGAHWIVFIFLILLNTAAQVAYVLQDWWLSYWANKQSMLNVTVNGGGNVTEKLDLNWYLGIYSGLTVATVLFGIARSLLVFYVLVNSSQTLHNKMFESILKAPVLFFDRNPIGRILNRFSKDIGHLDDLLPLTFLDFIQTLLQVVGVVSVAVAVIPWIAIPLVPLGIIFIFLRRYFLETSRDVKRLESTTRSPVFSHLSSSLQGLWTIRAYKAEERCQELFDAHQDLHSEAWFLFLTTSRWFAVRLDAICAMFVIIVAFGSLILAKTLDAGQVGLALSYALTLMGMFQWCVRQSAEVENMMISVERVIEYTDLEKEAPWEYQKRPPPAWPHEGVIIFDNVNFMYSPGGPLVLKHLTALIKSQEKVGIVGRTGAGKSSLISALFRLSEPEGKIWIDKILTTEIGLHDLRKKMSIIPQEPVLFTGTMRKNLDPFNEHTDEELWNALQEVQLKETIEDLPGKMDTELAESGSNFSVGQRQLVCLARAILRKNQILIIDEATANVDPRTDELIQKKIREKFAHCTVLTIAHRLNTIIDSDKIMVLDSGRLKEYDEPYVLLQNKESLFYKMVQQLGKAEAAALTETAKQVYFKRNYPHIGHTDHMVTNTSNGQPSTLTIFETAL
Kind of series: Activity at MRP4 (unknown origin) expressed in baculovirus-infected HEK293 cells assessed as drug transport at 400 uM after 10 mins by reversed-phase HPLC analysis in presence of AMP. The settings on record: hek293, 10 min, BLD = below limit of detection.

A short description of series [7]: Activity at P-gp (unknown origin) expressed in baculovirus-infected HEK293 cells assessed as drug transport at 400 uM after 10 mins by reversed-phase HPLC analysis in presence of ATP. Conditions: human, hek293, 10 min.

With `O=C(O)[C@H]1O[C@@H](Oc2ccc3ccc(=O)oc3c2)[C@H](O)[C@@H](O)[C@@H]1O`, the Drug transport result in series [1], in series [2], in series [3], in series [4], in series [5] and in series [6] was “BLD” each time. For the same molecule, the Drug transport result in series [7] is recorded as “Not Active”.
